Results as given in PMC12589998, “Development and validation of a UHPLC-QqQ-MS/MS method for simultaneous determination of fifteen major components from Oroxyli seed extract in rat plasma and its application in the pharmacokinetic study” (Frontiers in Pharmacology, 2025).
“Also recorded” adds a separate entry of the source. Read-outs that look alike come from different tables or passages of the source.

Experiments:
[1] = Pharmacokinetic study in rats after oral administration of OS extract (UHPLC-QqQ-MS/MS of plasma); assay type: in vivo, rat; conditions: for concentration at 0.5 h: SD, 3 g/kg, rat plasma collected 0.5 h after oral administration of the OS extract, read-out: Concentration printed in MRM chromatogram of plasma sample (Figure 2C); for AUC(0-t) / AUC(0-inf) / Cmax / half-life / Tmax: rat plasma, oral 3 g/kg OS extract, n = 6, mean ± SD; for AUC(0-inf): read-out: AUC(0-∞); for Cmax: read-out: Cmax; for half-life: read-out: T1/2 (converted); for Tmax: read-out: Tmax
Method: The UHPLC-QqQ-MS/MS system consisted of a 1290 UHPLC and a 6470 mass spectrometer (Agilent Technologies). Chromatographic separation was realized on utilizing an ACQUITY UPLC BEH C18 column (2.1 × 100 mm, 1.7 μm) maintained at 35 °C. The mobile phase consisting of 0.1% formic acid in water (A) and acetonitrile (B) was utilized with the elution program set at 0 min–1 min, 5% B–30% B; 1 min–4 min, 30% B– 50% B; 4 min–8 min, and 50% B–90% B. The injection volume was 5 μL, and the flow rate was 0.3 mL/min. The mass spectrometry parameters in the negative ion mode, gas temperature, flow rate, and nebulizer pressure were 300 °C, 7 L/min, and 35 psi, respectively. The mass spectra properties of the 15 analytes and the IS are illustrated in Table 1.
To 100 μL of the plasma sample, 20 μL of methanol, 20 μL of IS solution (methylparaben, 1 μg/mL), and 5 μL of formic acid were added and vortexed for a duration of 2 min. Subsequently, the mixture underwent extraction with 800 μL of acetonitrile for 3 min. Following 10 min of centrifugation at 12,000 g, the supernatant was collected and evaporated to dryness under N2 to obtain the residue. Finally, the residue was reconstituted in 50% methanol (100 μL) and utilized for analysis.
Before initiating the study, six male SD rats underwent a 12-h fasting period, during which they were granted unrestricted access to water. Then, the rats were administered an oral dose of 3 g/kg of the OS extract, which had been dissolved in 0.5% CMC-Na aqueous solution. Blood samples, approximately 200 μL each, were collected at various time points: before administration and at 0.03, 0.08, 0.17, 0.25, 0.5, 0.75, 1, 2, 4, 6, 8, 10, 12, 24, 36, and 48 h post-administration. Following 10 min of centrifugation at 6,000 g, the resultant samples were stored at −80 °C.
The developed method was effectively applied to study the pharmacokinetics in rats following oral administration of the OS extract. […] This was likely due to their low concentrations in the OS extract. Ultimately, nine components (chrysin, chrysin-7-O-β-D-glucuronide, baicalin, baicalein, oroxin A, oroxin B, oroxylin A, oroxylin A-7-O-β-D-glucuronide, and scutellarein) were successfully fitted with pharmacokinetic parameters. The average plasma concentration–time profiles of these substances are depicted in Figure 3. […] All data were presented as the mean ± standard deviation (Mean ± SD).

[2] = Stability of the analytes in rat plasma samples under storage conditions; assay type: physicochemical; conditions: n = 6
Method: The bioanalytical method validation was evaluated for specificity, linearity, sensitivity, precision and accuracy, recovery, matrix effect, and stability to ensure compliance with the U.S. Food and Drug Administration (FDA) guidance on precise quantitative analysis ([Center for Drug Evaluation and Research of the U.S., 2018]). The assessment of specificity was conducted by comparing the chromatograms obtained from blank plasma, blank plasma spiked with the target components, and samples gathered following the oral administration of OS extract. Calibration curves were constructed by plotting the ratio for the peak area of the analyte to IS versus the concentration, with 1/x^2 serving as the weighting factor. The lower limit of quantification (LLOQ) was defined as the concentration at which a signal to noise ratio of […] 10 was achievable. The evaluation of precision and accuracy involved the analysis of six QC samples, both within a single day and over 3 consecutive days. Accuracy was expressed as the relative error (RE), whereas precision was gauged via relative standard deviation (RSD). Extraction recovery was ascertained by juxtaposing the responses of analytes in extracted samples against those in samples that were spiked post-extraction. The matrix effect was scrutinized by determining the ratio of the responses of the analytes in post-extraction spiked samples to those in the mixed standard solution. The stability of the analytes in plasma samples was explored under diverse conditions: encompassing a 12-h period in an autosampler, a 4-h interval at room temperature, three cycles of freezing–thawing, and a 7-day duration at −80 °C.
The retention times of the analyte peaks were consistent with those in the spiked samples. […] The LLOQs for chrysin, chrysin-7-O-β-D-glucuronide, hispidulin, wogonoside, quercetin, quercetin-7-O-β-D-glucoside, baicalin, baicalein, acacetin, oroxin A, oroxin B, oroxylin A, oroxylin A-7-O-β-D-glucuronide, apigenin, and scutellarein were 1.0, 2.0, 1.0, 0.3, 1.0, 0.1, 9.0, 6.0, 0.3, 6.0, 4.0, 1.0, 2.0, 0.5, and 0.3 ng/mL, respectively. In Supplementary Table S2, the RE for accuracy is between −13.77% and 12.55%, and the RSD for precision is below 14.55% (both intra- and inter-day). […] The matrix effect varied from 60.15% to 115.53%, with RSD values below 10.54%. In Supplementary Table S4, the RSD values for stability of the analytes are found to be lower than 13.98%, meaning that these components were stable under the following conditions: encompassing a 12-h period in an autosampler, a 4-h interval at room temperature, three cycles of freezing and thawing, and a 7-day duration at −80 °C.

[3] = rat plasma after oral OS extract
[4] = spiked concentration 6400 ng/mL
[5] = spiked concentration 2000 ng/mL
[6] = spiked concentration 32000 ng/mL

| SMILES | concentration at 0.5 h ([1]; male) [ng/mL] | Plasma levels [1, 3] | Measured, -80°C for 7 days ([2]; spiked concentration 2 ng/mL) [ng/mL] | Measured, Autosampler for 12 h ([2]; spiked concentration 2 ng/mL) [ng/mL] | Measured, Room temperature for 4 h ([2]; spiked concentration 2 ng/mL) [ng/mL] | Measured, Three freeze-thaw cycles ([2]; spiked concentration 2 ng/mL) [ng/mL] | Measured, -80°C for 7 days ([2]; spiked concentration 20 ng/mL) [ng/mL] | Measured, Autosampler for 12 h ([2]; spiked concentration 20 ng/mL) [ng/mL] | Measured, Room temperature for 4 h ([2]; spiked concentration 20 ng/mL) [ng/mL] | Measured, Three freeze-thaw cycles ([2]; spiked concentration 20 ng/mL) [ng/mL] | Measured, -80°C for 7 days ([2]; spiked concentration 320 ng/mL) [ng/mL] | Measured, Autosampler for 12 h ([2]; spiked concentration 320 ng/mL) [ng/mL] | Measured, Room temperature for 4 h ([2]; spiked concentration 320 ng/mL) [ng/mL] | Measured, Three freeze-thaw cycles ([2]; spiked concentration 320 ng/mL) [ng/mL] | AUC(0-t) ([1]; male, read-out: AUC(0-t)) [µg·h/mL] | AUC(0-inf) ([1]; male) [µg·h/mL] | Cmax ([1]; male) [ng/mL] | half-life ([1]; male) [h] | Tmax ([1]; male) [h] | other results |
| --- | --- | --- | --- | --- | --- | --- | --- | --- | --- | --- | --- | --- | --- | --- | --- | --- | --- | --- | --- | --- |
| O=c1c(O)c(-c2ccc(O)c(O)c2)oc2cc(O[C@@H]3O[C@H](CO)[C@@H](O)[C@H](O)[C@H]3O)cc(O)c12 [Quercetin-7-O-β-D-glucoside, quercetin-7-O-β-D-glucoside] | 8 | too weak to obtain comprehensive pharmacokinetic curves | 1.96 ± 0.23 | 2.10 ± 0.15 | 1.98 ± 0.24 | 2.03 ± 0.10 | 19.58 ± 0.68 | 19.79 ± 2.27 | 20.28 ± 1.69 | 17.78 ± 1.17 | 296.81 ± 20.76 | 320.27 ± 20.06 | 315.81 ± 25.77 | 326.98 ± 27.26 | – | – | – | – | – | – |
| COc1c(O)cc2oc(-c3ccc(O)cc3)cc(=O)c2c1O [Hispidulin, hispidulin] | – | too weak to obtain comprehensive pharmacokinetic curves | 1.85 ± 0.14 | 1.79 ± 0.08 | 1.87 ± 0.12 | 1.77 ± 0.14 | 19.90 ± 2.31 | 21.61 ± 2.09 | 21.29 ± 2.88 | 20.10 ± 2.62 | 280.72 ± 21.00 | 304.61 ± 18.62 | 315.17 ± 13.17 | 289.06 ± 17.23 | – | – | – | – | – | concentration at 0.5 h ([1]; male, in vivo): 36 ng/mL |
| O=C(O)[C@H]1O[C@@H](Oc2cc(O)c3c(=O)cc(-c4ccccc4)oc3c2)[C@H](O)[C@@H](O)[C@@H]1O [Chrysin-7-O-β-D-glucuronide, chrysin-7-O-β-D-glucuronide] | 879 | – | – | – | – | – | – | – | – | – | – | – | – | – | 43.5 | 44.9 | 3320 | 4.79 ± 2.28 | 10 ± 2 | Measured, -80°C for 7 days ([2]; spiked concentration 40 ng/mL): 37.32 ± 1.14 ng/mL; Measured, Autosampler for 12 h ([2]; spiked concentration 40 ng/mL): 39.57 ± 2.48 ng/mL; Measured, Room temperature for 4 h ([2]; spiked concentration 40 ng/mL): 39.19 ± 3.16 ng/mL; Measured, Three freeze-thaw cycles ([2]; spiked concentration 40 ng/mL): 43.49 ± 1.13 ng/mL; Measured, -80°C for 7 days ([2]; spiked concentration 400 ng/mL): 409.88 ± 38.24 ng/mL; Measured, Autosampler for 12 h ([2]; spiked concentration 400 ng/mL): 419.16 ± 29.59 ng/mL; Measured, Room temperature for 4 h ([2]; spiked concentration 400 ng/mL): 419.25 ± 24.55 ng/mL; Measured, Three freeze-thaw cycles ([2]; spiked concentration 400 ng/mL): 402.45 ± 17.08 ng/mL; Measured, -80°C for 7 days [2, 4]: 6210.06 ± 535.52 ng/mL; Measured, Autosampler for 12 h [2, 4]: 5954.05 ± 243.71 ng/mL; Measured, Room temperature for 4 h [2, 4]: 6145.55 ± 285.25 ng/mL; Measured, Three freeze-thaw cycles [2, 4]: 6316.77 ± 188.36 ng/mL |
| COc1ccc(-c2cc(=O)c3c(O)cc(O)cc3o2)cc1 [Acacetin, acacetin] | 8 | too weak to obtain comprehensive pharmacokinetic curves | 1.78 ± 0.11 | 1.78 ± 0.15 | 2.20 ± 0.04 | 1.81 ± 0.06 | 17.78 ± 0.87 | 22.01 ± 1.07 | 21.25 ± 1.13 | 17.60 ± 1.24 | 284.83 ± 15.85 | 317.16 ± 38.69 | 313.68 ± 7.94 | 282.90 ± 15.75 | – | – | – | – | – | – |
| O=C(O)[C@H]1O[C@@H](Oc2cc3oc(-c4ccccc4)cc(=O)c3c(O)c2O)[C@H](O)[C@@H](O)[C@@H]1O [Baicalin, baicalin] | 10400 | – | – | – | – | – | – | – | – | – | – | – | – | – | 257 | 264 | 13400 | 9.14 ± 1.15 | 0.67 ± 0.13 | Shape of plasma concentration-time curve [1, 3]: significant bimodal phenomena; also recorded: clear bimodal phenomena; AUC(0-t) [1]: significantly higher than that of the others; Measured, -80°C for 7 days ([2]; spiked concentration 200 ng/mL): 196.55 ± 6.22 ng/mL; Measured, Autosampler for 12 h ([2]; spiked concentration 200 ng/mL): 197.37 ± 12.83 ng/mL; Measured, Room temperature for 4 h ([2]; spiked concentration 200 ng/mL): 197.18 ± 11.27 ng/mL; Measured, Three freeze-thaw cycles ([2]; spiked concentration 200 ng/mL): 191.59 ± 7.20 ng/mL; Measured, -80°C for 7 days [2, 5]: 2100.51 ± 51.69 ng/mL; Measured, Autosampler for 12 h [2, 5]: 1919.30 ± 46.13 ng/mL; Measured, Room temperature for 4 h [2, 5]: 2105.21 ± 73.11 ng/mL; Measured, Three freeze-thaw cycles [2, 5]: 1965.30 ± 64.97 ng/mL; Measured, -80°C for 7 days [2, 6]: 34521.83 ± 3366.83 ng/mL; Measured, Autosampler for 12 h [2, 6]: 31375.83 ± 425.60 ng/mL; Measured, Room temperature for 4 h [2, 6]: 30814.68 ± 1603.40 ng/mL; Measured, Three freeze-thaw cycles [2, 6]: 32953.20 ± 2649.23 ng/mL |
| O=c1c(O)c(-c2ccc(O)c(O)c2)oc2cc(O)cc(O)c12 [Quercetin, quercetin] | 26 | too weak to obtain comprehensive pharmacokinetic curves | 1.81 ± 0.12 | 1.90 ± 0.21 | 1.80 ± 0.22 | 1.80 ± 0.09 | 17.37 ± 0.79 | 17.83 ± 1.42 | 19.06 ± 1.54 | 20.46 ± 0.77 | 285.05 ± 20.53 | 325.17 ± 28.70 | 298.43 ± 22.04 | 288.07 ± 26.80 | – | – | – | – | ~10 | – |
